By pIC50 is commonly meant −log10 of the IC50, conventionally taken in molar units. What is called pEC50 is the EC50 on a negative log10 scale, so that one unit is a factor of ten. A lower pEC50 goes with a high EC50.

Our source for the IC50 and EC50 values is US20120010205A1, “NOVEL QUINOLINE ESTERS USEFUL FOR TREATING SKIN DISORDERS” (Wyeth LLC, priority 2010, published 2012).

Assay [1] concerns the target T1, human LXRβ (Homo sapiens, UniProt P55055).
T1 construct: made in house; host or cells: E. coli
T1 sequence (P55055 1-460): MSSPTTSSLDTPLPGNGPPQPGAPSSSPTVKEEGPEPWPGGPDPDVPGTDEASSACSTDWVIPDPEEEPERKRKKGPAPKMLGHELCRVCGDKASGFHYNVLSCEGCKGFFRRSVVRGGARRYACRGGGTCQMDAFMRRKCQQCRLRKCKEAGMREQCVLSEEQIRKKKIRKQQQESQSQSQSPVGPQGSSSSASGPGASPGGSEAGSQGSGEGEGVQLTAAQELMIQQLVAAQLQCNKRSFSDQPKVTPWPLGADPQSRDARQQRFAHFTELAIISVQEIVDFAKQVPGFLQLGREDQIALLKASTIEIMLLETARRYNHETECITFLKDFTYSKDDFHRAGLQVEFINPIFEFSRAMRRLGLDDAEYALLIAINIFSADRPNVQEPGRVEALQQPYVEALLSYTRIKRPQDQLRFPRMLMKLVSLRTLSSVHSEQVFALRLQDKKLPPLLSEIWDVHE
The experiment in a line: Ligand-binding test procedure for human LXRβ (3H T0901317 tracer, flash plates). As to conditions: read-out: hLXRb binding IC50. Here is the method:
LIGAND-BINDING TEST PROCEDURE FOR HUMAN LXRβ.
Buffer: 100 mM KCl, 100 mM TRIS (pH 7.4 at +4° C.), 8.6% glycerol, 0.1 mM PMSF*, 2 mM MTG*, 0.2% CHAPS (* not used in wash buffer)
Receptor source: E. coli extracted from cells expressing biotinylated hLXRβ. Extract was made in a similar buffer as above, but with 50 mM TRIS.
Washed streptavidin and coated flash plates with wash buffer. Diluted receptor extract to give Bmax˜4000 cpm and add to the wells. Wrapped the plates in aluminum foil and stored them at +4° C. overnight.
Made a dilution series in DMSO of the test ligands. Made a 5 nM solution of the radioactive tracer in buffer. Mixed 250 μL diluted tracer with 5 μL of the test ligand from each concentration of the dilution series. Washed the receptor-coated flash plates. Added 200 μL per well of the ligand/radiolabel mixture to the receptor-coated flash plates. Wrapped the plates in aluminum foil and incubate at +4° C. over night.
Aspirated wells, and washed the flashed plates. Sealed the plate. Measured the remaining radioactivity in the plate.

Assay [2] addresses T2, hLXRa (Homo sapiens, UniProt Q13133).
T2 sequence (Q13133 1-447): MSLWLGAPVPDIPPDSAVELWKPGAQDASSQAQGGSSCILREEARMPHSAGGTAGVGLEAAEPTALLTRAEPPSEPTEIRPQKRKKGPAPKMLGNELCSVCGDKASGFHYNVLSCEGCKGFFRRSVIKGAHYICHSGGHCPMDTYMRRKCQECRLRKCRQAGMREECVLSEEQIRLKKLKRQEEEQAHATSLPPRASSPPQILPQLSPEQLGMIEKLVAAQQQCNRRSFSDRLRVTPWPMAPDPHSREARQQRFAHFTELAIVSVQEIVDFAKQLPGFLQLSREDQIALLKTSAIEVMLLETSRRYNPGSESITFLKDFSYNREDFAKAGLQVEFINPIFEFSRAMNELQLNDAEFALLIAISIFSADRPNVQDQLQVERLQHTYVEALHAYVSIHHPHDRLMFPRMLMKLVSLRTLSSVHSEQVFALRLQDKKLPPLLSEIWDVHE
As to the kind of experiment: hLXRa binding.

Assay [3] concerns ABCG1. As to the kind of experiment: Gene regulation by LXR: ABCG1, human foreskin fibroblasts (serum-free). Format: cell-based.
Assay [4] concerns ABCG1. The experiment in a line: Gene regulation by LXR: ABCG1, KERTr (serum-free). Format: cell-based.

pEC50, pIC50: −log10 of the molar value.

Regarding `CS(=O)(=O)c1cccc(C(=O)Oc2cccc(-c3c(Cc4ccccc4)cnc4c(C(F)(F)F)cccc34)c2)c1` [Example 23, 3-[3-benzyl-8-(trifluoromethyl)quinolin-4-yl]phenyl 3-(methylsulfonyl)benzoate], the pIC50 in assay [1] is 8.57; in assay [2], 8.24. Also, the negative logarithm of the EC50 (pEC50) is 7.80 in assay [3] (Fibroblast) and 7.60 in assay [4].

Consider `Cc1cnc2c(C(F)(F)F)cccc2c1-c1cccc(OC(=O)c2cccc(S(=O)(=O)N(C)C)c2)c1` [Example 25, 3-[3-methyl-8-(trifluoromethyl)quinolin-4-yl]phenyl 3-(dimethylsulfamoyl)benzoate], for which the pIC50 in assay [1] is 7.85; in assay [2] it was 7.24. Moreover, the pEC50 in assay [3] (Fibroblast) was 6.60; in assay [4] it was 7.38.

On to `CCS(=O)(=O)c1cccc(C(=O)Oc2cccc(-c3c(C)cnc4c(C(F)(F)F)cccc34)c2)c1` [Example 26], for which the negative logarithm of the IC50 (pIC50) in assay [1] is 8.07; in assay [2], 7.28. Moreover, the pEC50 in assay [3] (Fibroblast) and in assay [4] was 6.60 in each case.

Consider `Cc1ccc(S(C)(=O)=O)cc1C(=O)Oc1cccc(-c2c(C)cnc3c(C(F)(F)F)cccc23)c1` [Example 27, 3-[3-methyl-8-(trifluormethyl)quinolin-4-yl]phenyl 2-methyl-5-(methylsulfonyl)benzoate], for which the pIC50 was 7.46 in assay [1] and 6.85 in assay [2]. For the same molecule, the values for the pEC50 in assay [3] and in assay [4] were 7.60 and 7.00, respectively.

Take `Cc1cnc2c(C(F)(F)F)cccc2c1-c1cccc(OC(=O)c2cc(S(C)(=O)=O)ccc2Cl)c1` [Example 28, 3-[3-methyl-8-(trifluoromethyl)quinolin-4-yl]phenyl 2-chloro-5-(methylsulfonyl)benzoate]: the values for the negative-log IC50 (pIC50) in assay [1] and in assay [2] were 7.72 and 6.98, respectively. Besides, the negative-log EC50 (pEC50) was 7.17 in assay [3] (Fibroblast) and 6.67 in assay [4].

On to `Cc1cnc2c(C(F)(F)F)cccc2c1-c1cccc(OC(=O)c2ccc(S(C)(=O)=O)cc2)c1` [Example 29, 3-[3-methyl-8-(trifluoromethyl)quinolin-4-yl]phenyl 4-(methylsulfonyl)benzoate], for which the pIC50 in assay [1] was 7.47; in assay [2], 6.81. Moreover, the pEC50 in assay [3] (Fibroblast) was 6.60; in assay [4], 6.78.

As for `Cc1ccc(S(=O)(=O)N(C)C)cc1C(=O)Oc1cccc(-c2c(C)cnc3c(C(F)(F)F)cccc23)c1` [Example 30, 3-[3-methyl-8-(trifluoromethyl)quinolin-4-yl]phenyl 5-(dimethylsulfamoyl)-2-methylbenzoate], the negative logarithm of the IC50 (pIC50) was 6.63 in assay [1] and 6.35 in assay [2]. Besides, the values for the pEC50 in assay [3] (Fibroblast) and in assay [4] were 6.79 and 6.86, respectively.

Consider `CCS(=O)(=O)c1cccc(C(=O)Oc2cccc(-c3c(-c4ccccc4)cnc4c(Cl)cccc34)c2)c1` [Example 32, 3-(8-chloro-3-phenylquinolin-4-yl)phenyl 3-(ethylsulfonyl)benzoate], for which the values for the pIC50 in assay [1] and in assay [2] were 8.52 and 8.10, respectively. For the same molecule, the pEC50 in assay [3] (Fibroblast) is 8.17; in assay [4], 8.54.

In the case of `CC(C)c1cnc2c(Cl)cccc2c1-c1cccc(OC(=O)c2cccc(S(=O)(=O)N(C)C)c2)c1` [Example 33, 3-(8-chloro-3-isopropylauinolin-4-yl)phenyl 3-(dimethylsulfamoyl)benzoate], the results for the pIC50 in assay [1] and in assay [2] were 8.33 and 7.82, respectively. In addition, the negative-log EC50 (pEC50) in assay [3] (Fibroblast) is 7.26; in assay [4], 8.08.

For the molecule `CC(C)c1cnc2c(Cl)cccc2c1-c1cccc(OC(=O)c2ccc(S(=O)(=O)N(C)C)cc2)c1` [Example 34, 3-(8-chloro-3-isopropylquinolin-4-yl)phenyl 4-(dimethylsulfamoyl)benzoate], the pIC50 in assay [1] was 7.19; in assay [2], 6.73. Further, the pEC50 is 7.11 in assay [3] (Fibroblast) and 8.86 in assay [4].

Take `CC(C)c1cnc2c(Cl)cccc2c1-c1cccc(OC(=O)c2cccc(CS(C)(=O)=O)c2)c1` [Example 35, 3-(8-chloro-3-isopropylauinolin-4-yl)phenyl 3-[(methylsulfonyl)methyl]benzoate]: the pIC50 in assay [1] was 8.25; in assay [2] it was 8.06. Besides, the pEC50 in assay [3] is 7.96; in assay [4], 9.28.

Turning to `CNS(=O)(=O)c1cccc(C(=O)Oc2cccc(-c3c(C(C)C)cnc4c(Cl)cccc34)c2)c1` [Example 36, 3-(8-chloro-3-isopropylquinolin-4-yl)phenyl 3-(methylsulfamoyl)benzoate], the pIC50 in assay [1] is 8.38; in assay [2] it was 8.04. The negative-log EC50 (pEC50) was 8.10 in assay [3] (Fibroblast) and 9.40 in assay [4].

On to `CC(C)c1cnc2c(Cl)cccc2c1-c1cccc(OC(=O)c2cccc(S(=O)(=O)N3CCOCC3)c2)c1` [Example 37, 3-(8-chloro-3-isopropylauinolin-4-yl)phenyl 3-(morpholin-4-ylsulfonyl)benzoate], for which the figures for the pIC50 in assay [1] and in assay [2] were 7.16 and 6.69, respectively. Besides, the pEC50 is 7.22 in assay [3] and 8.62 in assay [4].

In the case of `Cc1ccc(S(=O)(=O)N2CCOCC2)cc1C(=O)Oc1cccc(-c2c(C(C)C)cnc3c(Cl)cccc23)c1` [Example 38, 3-(8-chloro-3-isopropylquinolin-4-yl)phenyl 2-methyl-5-(morpholin-4-ylsulfonyl)benzoate], the pIC50 in assay [1] is 6.30; in assay [2], 6.18. Further, the pEC50 in assay [3] (Fibroblast) was 7.36; in assay [4], 9.21.
